Test results reported in patent publication US7601716B2, “Pyridopyrazines and derivatives thereof as ALK and c-Met inhibitors” (Cephalon, Inc., priority 2006, dated 2009).

These compounds were tested against baculovirus-expressed ALK (Homo sapiens, UniProt Q9UM73) (assay: ALK Kinase Assay (ELISA/TRF, PLC-γ substrate)). Conditions: read-out: ALK Kinase Inhibition (IC50).
Format: biochemical
Procedure, shortened: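 Read-out: TRF of europium-labeled anti-phosphotyrosine antibody bound to phosphorylated GST–PLC-γ coated at 10 μg/mL. Kinase step used 30 ng/ml ALK, 37° C, 15 minutes. IC50 values fitted by nonlinear sigmoidal dose-response (variable slope).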
Note: 1 µM ATP (Km level).

Chain of baculovirus-expressed ALK (Q9UM73 19-1620): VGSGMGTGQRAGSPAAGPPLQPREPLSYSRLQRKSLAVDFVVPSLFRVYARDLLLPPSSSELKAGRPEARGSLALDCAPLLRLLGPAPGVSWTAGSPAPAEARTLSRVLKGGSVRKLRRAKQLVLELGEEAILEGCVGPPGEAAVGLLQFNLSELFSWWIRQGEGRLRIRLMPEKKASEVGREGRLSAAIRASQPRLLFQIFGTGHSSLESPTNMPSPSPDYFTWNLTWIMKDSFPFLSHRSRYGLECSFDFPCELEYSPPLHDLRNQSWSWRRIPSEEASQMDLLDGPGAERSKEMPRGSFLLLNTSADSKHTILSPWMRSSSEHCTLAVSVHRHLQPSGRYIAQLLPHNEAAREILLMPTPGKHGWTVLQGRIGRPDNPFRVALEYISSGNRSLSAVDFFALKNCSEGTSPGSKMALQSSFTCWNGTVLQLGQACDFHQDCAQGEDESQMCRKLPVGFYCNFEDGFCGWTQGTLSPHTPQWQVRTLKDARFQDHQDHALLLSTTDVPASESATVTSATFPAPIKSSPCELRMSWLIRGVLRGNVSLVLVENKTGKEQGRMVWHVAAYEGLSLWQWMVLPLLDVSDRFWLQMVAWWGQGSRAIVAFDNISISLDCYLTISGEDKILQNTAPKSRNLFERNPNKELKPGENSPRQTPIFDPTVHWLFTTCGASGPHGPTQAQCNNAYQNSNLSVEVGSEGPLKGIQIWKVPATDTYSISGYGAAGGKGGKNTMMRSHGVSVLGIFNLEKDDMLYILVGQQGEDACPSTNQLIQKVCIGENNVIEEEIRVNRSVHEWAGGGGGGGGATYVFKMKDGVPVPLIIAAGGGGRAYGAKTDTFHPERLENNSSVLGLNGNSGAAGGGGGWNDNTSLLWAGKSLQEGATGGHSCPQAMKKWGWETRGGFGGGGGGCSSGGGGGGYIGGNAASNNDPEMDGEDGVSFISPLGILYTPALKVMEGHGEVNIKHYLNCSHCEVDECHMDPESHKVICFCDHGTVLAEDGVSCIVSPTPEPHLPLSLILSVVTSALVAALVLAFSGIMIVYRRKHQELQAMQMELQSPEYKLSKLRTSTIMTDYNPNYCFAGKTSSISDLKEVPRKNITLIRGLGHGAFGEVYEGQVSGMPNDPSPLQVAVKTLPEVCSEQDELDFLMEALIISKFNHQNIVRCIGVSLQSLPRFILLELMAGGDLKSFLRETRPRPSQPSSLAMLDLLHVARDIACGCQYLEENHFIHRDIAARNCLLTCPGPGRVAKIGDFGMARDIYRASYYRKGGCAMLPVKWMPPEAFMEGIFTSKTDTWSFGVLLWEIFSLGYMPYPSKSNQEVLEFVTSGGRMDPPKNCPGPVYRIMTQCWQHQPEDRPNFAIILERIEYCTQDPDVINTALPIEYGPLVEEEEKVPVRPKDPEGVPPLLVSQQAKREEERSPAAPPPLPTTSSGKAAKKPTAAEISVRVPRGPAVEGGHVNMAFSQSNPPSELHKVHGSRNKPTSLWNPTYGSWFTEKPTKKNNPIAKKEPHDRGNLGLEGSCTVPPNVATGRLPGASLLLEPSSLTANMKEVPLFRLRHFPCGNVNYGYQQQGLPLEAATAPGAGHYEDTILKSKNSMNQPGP

IC50	Compound
< 100 nM	Cc1cc(N2CCN(C(=O)c3ccc(-c4cnc5c(c4)N(Cc4cc(Cl)ccc4C(F)(F)F)CCN5)cc3)CC2)c2ccccc2n1 [Example 403, (4-{1-[5-Chloro-2-(trifluoromethyl)benzyl]-1,2,3,4-tetrahydropyrido[2,3-b]pyrazin-7-yl}phenyl)-[4-(2-methylquinolin-4-yl)piperazin-1-yl]methanone]
< 100 nM	COCCNC(=O)c1ccc(-c2cnc3c(c2)N(Cc2cc(Cl)ccc2C(F)(F)F)CCN3)cc1 [Example 404, 4-{1-[5-Chloro-2-(trifluoromethyl)benzyl]-1,2,3,4-tetrahydropyrido[2,3-b]pyrazin-7-yl}-N-(2-methoxyethyl)benzamide]
100 to 1000 nM	NS(=O)(=O)c1ccc(CCNC(=O)c2ccc(-c3cnc4c(c3)N(Cc3cc(Cl)ccc3C(F)(F)F)CCN4)cc2)cc1 [Example 405, 4-{1-[5-Chloro-2-(trifluoromethyl)benzyl]-1,2,3,4-tetrahydropyrido[2,3-b]pyrazin-7-yl}-N-[2-(4-sulfamoylphenyl)ethyl]benzamide]
< 100 nM	O=C(c1ccc(-c2cnc3c(c2)N(Cc2cc(Cl)ccc2C(F)(F)F)CCN3)cc1)N1CCN(c2cnccn2)CC1 [Example 406, (4-{1-[5-Chloro-2-(trifluoromethyl)benzyl]-1,2,3,4-tetrahydropyrido[2,3-b]pyrazin-7-yl}phenyl)-(2,3,5,6-tetrahydro[1,2′]bipyrazinyl-4-yl)methanone]
100 to 1000 nM	O=C(NCc1csc(-c2ccccc2)n1)c1ccc(-c2cnc3c(c2)N(Cc2cc(Cl)ccc2C(F)(F)F)CCN3)cc1 [Example 407, 4-{1-[5-Chloro-2-(trifluoromethyl)benzyl]-1,2,3,4-tetrahydropyrido[2,3-b]pyrazin-7-yl}-N-(2-phenylthiazol-4-ylmethyl)benzamide]
100 to 1000 nM	O=C(c1ccc(-c2cnc3c(c2)N(Cc2cc(Cl)ccc2C(F)(F)F)CCN3)cc1)N1CCOCC1 [Example 408, (4-{1-[5-Chloro-2-(trifluoromethyl)benzyl]-1,2,3,4-tetrahydropyrido[2,3-b]pyrazin-7-yl}phenyl)morpholin-4-ylmethanone]
1000 to 10000 nM	O=C(NCc1cccc2ccccc12)c1ccc(-c2cnc3c(c2)N(Cc2cc(Cl)ccc2C(F)(F)F)CCN3)cc1 [Example 409, 4-{1-[5-Chloro-2-(trifluoromethyl)benzyl]-1,2,3,4-tetrahydropyrido[2,3-b]pyrazin-7-yl}-N-naphthalen-1-ylmethylbenzamide]
100 to 1000 nM	O=C(NC1CCc2ccccc21)c1ccc(-c2cnc3c(c2)N(Cc2cc(Cl)ccc2C(F)(F)F)CCN3)cc1 (centres unmarked) [Example 410, 4-{1-[5-Chloro-2-(trifluoromethyl)benzyl]-1,2,3,4-tetrahydropyrido[2,3-b]pyrazin-7-yl}-N-indan-1-ylbenzamide]
100 to 1000 nM	COc1ccc(N2CCN(C(=O)c3ccc(-c4cnc5c(c4)N(Cc4cc(Cl)ccc4C(F)(F)F)CCN5)cc3)CC2)cc1 [Example 411, (4-{1-[5-Chloro-2-(trifluoromethyl)benzyl]-1,2,3,4-tetrahydropyrido[2,3-b]pyrazin-7-yl}phenyl)-[4-(4-methoxyphenyl)piperazin-1-yl]methanone]
100 to 1000 nM	O=C(NCc1ccccc1Cl)c1ccc(-c2cnc3c(c2)N(Cc2cc(Cl)ccc2C(F)(F)F)CCN3)cc1 [Example 412, N-(2-Chlorobenzyl)-4-{1-[5-chloro-2-(trifluoromethyl)benzyl]-1,2,3,4-tetrahydropyrido[2,3-b]pyrazin-7-yl}benzamide]
100 to 1000 nM	O=C(NCc1ccc(Cl)cc1)c1ccc(-c2cnc3c(c2)N(Cc2cc(Cl)ccc2C(F)(F)F)CCN3)cc1 [Example 413, N-(4-Chlorobenzyl)-4-{1-[5-chloro-2-(trifluoromethyl)benzyl]-1,2,3,4-tetrahydropyrido[2,3-b]pyrazin-7-yl}benzamide]
100 to 1000 nM	O=C(NCc1cccc(Cl)c1)c1ccc(-c2cnc3c(c2)N(Cc2cc(Cl)ccc2C(F)(F)F)CCN3)cc1 [Example 414, N-(3-Chloro-benzyl)-4-{1-[5-chloro-2-(trifluoromethyl)benzyl]-1,2,3,4-tetrahydropyrido[2,3-b]pyrazin-7-yl}benzamide]
< 100 nM	O=C(c1ccc(-c2cnc3c(c2)N(Cc2cc(Cl)ccc2C(F)(F)F)CCN3)cc1)N1CCN(C(=O)C2CCCO2)CC1 (centres unmarked) [Example 415, (4-{1-[5-Chloro-2-(trifluoromethyl)benzyl]-1,2,3,4-tetrahydropyrido[2,3-b]pyrazin-7-yl}phenyl)-[4-(tetrahydrofuran-2-carbonyl)piperazin-1-yl]methanone]
100 to 1000 nM	O=C(NCCc1ccccc1)c1ccc(-c2cnc3c(c2)N(Cc2cc(Cl)ccc2C(F)(F)F)CCN3)cc1 [Example 416, 4-{1-[5-Chloro-2-(trifluoromethyl)benzyl]-1,2,3,4-tetrahydropyrido[2,3-b]pyrazin-7-yl}-N-phenethylbenzamide]
100 to 1000 nM	O=C(NCC1CCCO1)c1ccc(-c2cnc3c(c2)N(Cc2cc(Cl)ccc2C(F)(F)F)CCN3)cc1 (centres unmarked) [Example 417, 4-{1-[5-Chloro-2-(trifluoromethyl)benzyl]-1,2,3,4-tetrahydropyrido[2,3-b]pyrazin-7-yl}-N-(tetrahydrofuran-2-ylmethyl)benzamide]
100 to 1000 nM	COc1cccc(CNC(=O)c2ccc(-c3cnc4c(c3)N(Cc3cc(Cl)ccc3C(F)(F)F)CCN4)cc2)c1 [Example 418, 4-{1-[5-Chloro-2-(trifluoromethyl)benzyl]-1,2,3,4-tetrahydropyrido[2,3-b]pyrazin-7-yl}-N-(3-methoxybenzyl)benzamide]
100 to 1000 nM	COc1ccc(CNC(=O)c2ccc(-c3cnc4c(c3)N(Cc3cc(Cl)ccc3C(F)(F)F)CCN4)cc2)cc1 [Example 419, 4-{1-[5-Chloro-2-(trifluoromethyl)benzyl]-1,2,3,4-tetrahydropyrido[2,3-b]pyrazin-7-yl}-N-(4-methoxybenzyl)benzamide]
100 to 1000 nM	O=C(NCCOc1ccccc1)c1ccc(-c2cnc3c(c2)N(Cc2cc(Cl)ccc2C(F)(F)F)CCN3)cc1 [Example 420, 4-{1-[5-Chloro-2-(trifluoromethyl)benzyl]-1,2,3,4-tetrahydropyrido[2,3-b]pyrazin-7-yl}-N-(2-phenoxyethyl)benzamide]
100 to 1000 nM	O=C(NCc1ccccc1)c1ccc(-c2cnc3c(c2)N(Cc2cc(Cl)ccc2C(F)(F)F)CCN3)cc1 [Example 421, N-Benzyl-4-{1-[5-chloro-2-(trifluoromethyl)benzyl]-1,2,3,4-tetrahydropyrido[2,3-b]pyrazin-7-yl}benzamide]
100 to 1000 nM	O=C(c1ccc(-c2cnc3c(c2)N(Cc2cc(Cl)ccc2C(F)(F)F)CCN3)cc1)N1CCN(c2cccc(Cl)c2)CC1 [Example 422, [4-(3-Chlorophenyl)piperazin-1-yl]-(4-{1-[5-chloro-2-(trifluoromethyl)benzyl]-1,2,3,4-tetrahydropyrido[2,3-b]pyrazin-7-yl}phenyl)methanone]
100 to 1000 nM	O=C(NC1Cc2ccccc2C1)c1ccc(-c2cnc3c(c2)N(Cc2cc(Cl)ccc2C(F)(F)F)CCN3)cc1 [Example 423, 4-{1-[5-Chloro-2-(trifluoromethyl)benzyl]-1,2,3,4-tetrahydropyrido[2,3-b]pyrazin-7-yl}-N-indan-2-ylbenzamide]
100 to 1000 nM	O=C(c1ccc(-c2cnc3c(c2)N(Cc2cc(Cl)ccc2C(F)(F)F)CCN3)cc1)N1CCN(CCc2ccccc2)CC1 [Example 424, (4-{1-[5-Chloro-2-(trifluoromethyl)benzyl]-1,2,3,4-tetrahydropyrido[2,3-b]pyrazin-7-yl}phenyl)-(4-phenethylpiperazin-1-yl)methanone]
1000 to 10000 nM	O=C(NCc1ccc(-c2ccccc2)cc1)c1ccc(-c2cnc3c(c2)N(Cc2cc(Cl)ccc2C(F)(F)F)CCN3)cc1 [Example 425, N-Biphenyl-4-ylmethyl-4-{1-[5-Chloro-2-(trifluoromethyl)benzyl]-1,2,3,4-tetrahydropyrido[2,3-b]pyrazin-7-yl}benzamide]
100 to 1000 nM	O=C(c1ccc(-c2cnc3c(c2)N(Cc2cc(Cl)ccc2C(F)(F)F)CCN3)cc1)N1CCN(c2ccccc2Cl)CC1 [Example 426, [4-(2-Chlorophenyl)piperazin-1-yl]-(4-{1-[5-chloro-2-(trifluoromethyl)benzyl]-1,2,3,4-tetrahydropyrido[2,3-b]pyrazin-7-yl}phenyl)methanone]
100 to 1000 nM	O=C(NC1CCN(Cc2ccccc2)C1)c1ccc(-c2cnc3c(c2)N(Cc2cc(Cl)ccc2C(F)(F)F)CCN3)cc1 (centres unmarked) [Example 427, N-(1-Benzylpyrrolidin-3-yl)-4-{1-[5-chloro-2-(trifluoromethyl)benzyl]-1,2,3,4-tetrahydropyrido[2,3-b]pyrazin-7-yl}benzamide]
1000 to 10000 nM	O=C(c1ccc(-c2cnc3c(c2)N(Cc2cc(Cl)ccc2C(F)(F)F)CCN3)cc1)N1CCN(CC2CCCCC2)CC1 [Example 428, (4-{1-[5-Chloro-2-(trifluoromethyl)benzyl]-1,2,3,4-tetrahydropyrido[2,3-b]pyrazin-7-yl}phenyl)-[4-(cyclohexylmethyl)piperazin-1-yl]methanone]
100 to 1000 nM	NS(=O)(=O)c1ccc(CNC(=O)c2ccc(-c3cnc4c(c3)N(Cc3cc(Cl)ccc3C(F)(F)F)CCN4)cc2)cc1 [Example 429, 4-{1-[5-Chloro-2-(trifluoromethyl)benzyl]-1,2,3,4-tetrahydropyrido[2,3-b]pyrazin-7-yl}-N-(4-sulfamoylbenzyl)benzamide]
< 100 nM	O=C(c1ccc(-c2cnc3c(c2)N(Cc2cc(Cl)ccc2C(F)(F)F)CCN3)cc1)N1CCC[C@H]1CN1CCCC1 [Example 430, (4-{1-[5-Chloro-2-(trifluoromethyl)benzyl]-1,2,3,4-tetrahydropyrido[2,3-b]pyrazin-7-yl}phenyl)-((S)-2-pyrrolidin-1-ylmethylpyrrolidin-1-yl)methanone]
100 to 1000 nM	O=C(c1ccc(-c2cnc3c(c2)N(Cc2cc(Cl)ccc2C(F)(F)F)CCN3)cc1)N1CCCC1c1cccnc1 (centres unmarked) [Example 431, (4-{1-[5-Chloro-2-(trifluoromethyl)benzyl]-1,2,3,4-tetrahydropyrido[2,3-b]pyrazin-7-yl}phenyl)-(2-pyridin-3-yl-pyrrolidin-1-yl)methanone]
